# From US12173344B2, “Fluorescent fusion based heterologous peptide production” (Stellenbosch University, priority 2020, dated 2024)
# Where no end group is shown, it is not given here.
# Legend:
# Format in all cases: cell-based
# Erythrocyte = Erythrocyte lysis (haemolysis) assay; conditions: fusion not cleaved
# From the text: FIG. 18: Top Panel-SDS-PAGE of purified GFP-LLO and LLO used in erythrocyte lysis assay. Left: Stained gel. Right: Fluorescent image of GFP-LLO and GFP, L: Ladder (NEB ladder #P7712), 1: Uncut GFP-LLO, 2: Cleaved, IMAS purified and desalted LLO. A: GFP-LLO, B: LLO. Bottom Panel-Erythrocyte haemolysis following GFP-LLO exposure at varying pH. Relative haemoglobin absorbance was collected at 540 nm, values expressed as percentage of positive control, mean±SEM (n=3), Analysis via t-test concluded *=p<0.001, ***=p<0.0001 vs Untreated.
# [1] = test system: Listeria monocytogenes EDG-e; experiment: Antilisterial activity, spot plate and SDS-PAGE agar overlay
# Experimental: While the respective bacteriocins were fused to GFP and produced a fluorescent complex, it was important to determine that antimicrobial activity was due to the liberated bacteriocin. Antimicrobial activity of plantaricin 423 and mundticin ST4SA was assessed against Listeria monocytogenes EDG-e grown on Brain Heart Infusion media (BHI) containing […] chloramphenicol. The spot plate method was performed on solid medium (1% w/v agar) seeded with Listeria monocytogenes EDG-e. SDS-PAGE separations were assayed for activity by casting the polyacrylamide gel in an agar bilayer seeded with Listeria monocytogenes EDG-e. Before casting, the poly acrylamide gels were fixed for 20 min in a 25% isopropanol, 10% acetic acid fixing solution and then rinsed 3×15 min with sterile ultra-pure water.
# Cleavage parameters were optimized using a modified method from that supplied by the manufacturer. The WELQut-to-Sample ratios were set to 1:100, 1:50, 1:25, 1:5 (v/v) for 50 μL samples of GFP-PlaX and GFP-MunX, respectively, and diluted to a final volume of 250 μL in WELQut cut buffer. The approximate corresponding units of WELQ to 466.5 μg of GFP-PlaX was 2.5 U, 5 U, 10 U and 50 U respectively. The approximate corresponding units of WELQ to 547.5 μg of GFP-MunX was 2.5 U, 5 U, 10 U and 50 U respectively. Cleavage reactions were incubated at 28° C., and 50 μL samples were collected at 2 h, 4 h, 8 h, and 16 h, respectively. Cleavage was assessed by the spot plate method using BHI solid medium (1% w/v agar) seeded with Listeria monocytogenes EGD-e.
# Mundticin ST4SA and plantaricin 423 were cleaved from one millilitre of His-tag purified GFP-MunX and GFP-PlaX, respectively, under optimal cleavage conditions. Cleavage reactions were purified using high performance liquid chromatography (HPLC), single peaks were spot tested for antilisterial activity.
# Lactobacillus sakei = experiment: Antimicrobial activity (clear zones on plates) against Lactobacillus sakei
# Experimental: (§1) For initial antimicrobial efficacy testing, both GFP-fused and non-GFP-fused pLanthipeptides were loaded (GFP-pNisin and GFP-pPep5) and cleaved directly in wells with trypsin (5 μg/mL for GFPpNisin) or thrombin (3 U/100 μL for GFP-pPep5). Antimicrobial activity was evaluated against Lactobacillus sakei for nisin and against S. carnosus for GFP-pPep5. Plates were incubated at 30° C. overnight until visible clear zones were observed. Lactobacillus sakei was cultured in MRS broth or agar and S. carnosus was cultured in Mueller Hinton Broth or agar.
# (§2) GFP-pLanthipeptides were cleaved at 37° C. for 4 h and 20 h, with thrombin or hNisP. Heterologously expressed hNisP was added to concentrations of 0.01 ng/μL, 5 ng/μL, 10 ng/μL, 50 ng/μL and 70 ng/μL. Thrombin was added at 0.75 U, 4.5 U, 3 U and 6 U. Cleavage reactions were performed in 100 μL reactions and protein concentrations of GFP-pLanthipeptides were adjusted to final concentrations of 1 mg/ml with the exception of GFP-pPep5Th which was adjusted to 0.9 mg/mL. Cleavage reactions were stopped by the addition of protease inhibitors. Antimicrobial activity was evaluated against Lb. sakei and S. carnosus for GFP-pNisin (30 μL) and GFP-pPep5 (80 μL), respectively. Plates were incubated at 30° C. overnight until visible clear zones were observed. Samples were separated using SDS-PAGE.
# S. carnosus = experiment: Antimicrobial activity (clear zones on plates) against S. carnosus; conditions: thrombin and hNisP, 4 h and 20 h cleavage
# Experimental: as §1, §2
# [2] = after cleavage / liberation of the core peptide, expression at 26° C.
substance,measurement,setting,value
GFP-LLO,Activity of LLO while fused to fluorescent partner,Erythrocyte,still has activity
GFP-MunX: GFP fused to mature mundticin ST4SA with WELQut cleavage site (SEQ ID NO:32),Antilisterial activity at the band location,"[1]; SDS-PAGE gel overlay after WELQut cleavage, zone at the size/location of the named species",zones of antilisterial activity
same,Antilisterial activity,"[1]; WELQut cleaved samples, SDS-PAGE gel overlay",clear zones
same,Specific activity,"[1]; cleaved fusion protein, compared with the other GFP-bacteriocin",higher specific activity
same,Antilisterial activity,"[1]; uncleaved fusion protein, spot plate",did not show antilisterial activity
GFP-pNisin: N-terminal His tagged GFP with WELQut site fused to precursor nisin (SEQ ID NO:28/30),Antimicrobial activity,Lactobacillus sakei; [2],highest activity
same,Antimicrobial activity,"Lactobacillus sakei; after cleavage with trypsin, expression at a range of temperatures, induction times and IPTG concentrations",activity was detected
same,Antimicrobial activity,Lactobacillus sakei; uncleaved sample,absent
"HispNisin: His-tagged precursor nisin, no fluorescent fusion (MSTKDFNLDLVSVSKKDSGASPRITSISLCTPGCKTGALMGCNMKTATCHCSIHVSK; cysteine pairing not given here; also: His tag, not shown in chain; UniProt P13068 1-57, looked up)",Antimicrobial activity,Lactobacillus sakei; [2],decrease
same,Antimicrobial activity,"Lactobacillus sakei; after cleavage with trypsin, expression at 18° C., soluble and insoluble fractions",highest activity
same,Antimicrobial activity,"Lactobacillus sakei; after cleavage with trypsin, expression at 37° C.",substantial loss in activity
"Pep5: lanthipeptide liberated from GFP-pPep5 by thrombin or hNisP (TAGPAIRASVKQCQKTLKATRLFTVSCKGKNGCK; also: lanthipeptide (lantibiotic) thioether rings, not placed; UniProt P19578 27-60, looked up)",Effect on antimicrobial activity of increasing concentration and cleavage time,S. carnosus,detrimental effect
